Measured values from US8609812B2, “Use of β-2-microglobulin to assess glomerular alterations and damage in the kidney” (Novartis AG, priority 2007, dated 2013).

System: kidney
Test: rat in vivo studies, histopathology of kidney
Excerpt: Results of in vivo studies and histopathology. All 10 rat in vivo studies were successfully conducted.
In FIG. 2, the distributions of grades of the histopathology assessment are shown. The predominance of grade 1 and grade 2 findings and the absence of grade 5 lesions indicate that the goal of inducing mainly mild nephrotoxicity has been achieved. The considerable number of grade 1 and some grade 2 findings in the vehicle-dosed and the hepatotoxicant-dosed animals indicates the level of sensitivity of the histopathology assessment performed in this project. No significant dose-dependent nephrotoxicity was induced by the hepatotoxicants. In FIG. 3 a detailed list of all reported localized lesions, including the number of occurrences for each grade, separated by nephrotoxicant-dosed animals and the control animals (vehicle-dosed and hepatotoxicant-dosed) is shown. Seventy-five different localized finding were observed.
The different types of lesions were usually not observed in an isolated fashion, but typically in a highly correlated manner representing different molecular processes. In FIG. 4, all histopathology findings are shown for the cisplatin study. […] In addition, a logical sequence of molecular processes along the dose- and time-ordered animals can be observed. […]

| Structure (SMILES) | histopathology findings in the kidney (ANIT study, vehicle or different doses) | renal histopathology findings, sequence of processes (rat, in vivo) |
| --- | --- | --- |
| S=C=Nc1cccc2ccccc12 [ANIT, alpha-naphtylisothiocyanate] | not in the kidney |  |
| N.N.[Cl][Pt][Cl] [cisplatin] |  | Necrosis as a consequence of damage is seen, and then regeneration processes such as basophilia and mitosis are seen |
